# From patent US20070010671A1, “Novel quinazoline derivatives and methods of treatment related to the use thereof” (priority 2003, published 2007)
# pIC50: −log10 of the molar value.
# Molecular target: MCH receptor (Homo sapiens, UniProt Q99705)
# Assay: High throughput functional screening FLIPR/FDSS6000: inhibition of MCH-evoked intracellular Ca2+ changes
# Format: cell-based
# Details: class by percent of control at 10^-7 M or IC50
# Summary of the method: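 Seed cells the day before, then load them with Fluo4-AM for one hour at 37° C and wash in HEPES-buffered HBSS, pH 7.4. Add compound for 3 min, then stimulate with 50 nM MCH. Monitor the calcium transient for 290 s.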
row,Structure (SMILES),class
1,"CN(C)c1nc(N[C@H]2CC[C@@H](NC(=S)Nc3ccccc3OC(F)(F)F)CC2)nc2ccccc12 [compound 207, N-(cis-4-{[4-(dimethylamino)quinazolin-2-yl]amino}cyclohexyl)-N′-[2-(trifluoromethoxy)phenyl]thiourea]",2 (Class 2: The value of percent of control at 10^−7 M was from 40% to 60% or the value of IC50 was from 50 nM to 200 nM.)
2,CN(C)c1nc(N[C@H]2CC[C@@H](CNC(=S)NCc3cccc4ccccc34)CC2)nc2ccccc12 [compound 713],3 (Class 3: The value of percent of control at 10^−7 M was more than 60% or the value of IC50 was more than 200 nM.)
3,Cc1ccccc1CNC(=S)NC[C@H]1CC[C@@H](Nc2nc(N(C)C)c3ccccc3n2)CC1 [compound 727],3 (Class 3: The value of percent of control at 10^−7 M was more than 60% or the value of IC50 was more than 200 nM.)
4,"CC(C)c1cc(Br)c(NC(=O)NC[C@H]2CC[C@@H](Nc3nc(N(C)C)c4ccccc4n3)CC2)c(Br)c1 [compound 759, N-(2,6-dibromo-4-isopropylphenyl)-N′-[(cis-4-{[4-(dimethylamino)quinazolin-2-yl]amino}cyclohexyl)methyl]urea]",2 (Class 2: The value of percent of control at 10^−7 M was from 40% to 60% or the value of IC50 was from 50 nM to 200 nM.)
5,CN(C)c1nc(N[C@H]2CC[C@@H](CNC(=O)NCc3ccc(Br)cc3)CC2)nc2ccccc12 [compound 544],3 (Class 3: The value of percent of control at 10^−7 M was more than 60% or the value of IC50 was more than 200 nM.)
6,COC(=O)c1ccc(NC(=S)N[C@H]2CC[C@@H](Nc3nc(N(C)C)c4ccccc4n3)CC2)cc1 [compound 278],2 (Class 2: The value of percent of control at 10^−7 M was from 40% to 60% or the value of IC50 was from 50 nM to 200 nM.)
7,Cc1cc(C)c(NC(=S)NC[C@H]2CC[C@@H](Nc3nc(N(C)C)c4ccccc4n3)CC2)cc1C [compound 717],3 (Class 3: The value of percent of control at 10^−7 M was more than 60% or the value of IC50 was more than 200 nM.)
8,"COc1ccc(NC(=S)N[C@H]2CC[C@@H](Nc3nc(N(C)C)c4ccccc4n3)CC2)c(C)c1 [compound 320, N-(cis-4-{[4-(dimethylamino)quinazolin-2-yl]amino}cyclohexyl)-N′-(4-methoxy-2-methylphenyl)thiourea]",1 (Class 1: The value of percent of control at 10^−7 M was less than 40% or the value of IC50 was less than 50 nM.)
9,CN(C)c1nc(N[C@H]2CC[C@@H](CNC(=S)NCc3cccc(F)c3)CC2)nc2ccccc12 [compound 732],3 (Class 3: The value of percent of control at 10^−7 M was more than 60% or the value of IC50 was more than 200 nM.)
10,CCCCOC(=O)c1ccccc1NC(=O)NC[C@H]1CC[C@@H](Nc2nc(N(C)C)c3ccccc3n2)CC1 [compound 750],3 (Class 3: The value of percent of control at 10^−7 M was more than 60% or the value of IC50 was more than 200 nM.)
11,CN(C)c1ccc(NC(=O)N[C@H]2CC[C@@H](Nc3nc(N(C)C)c4ccccc4n3)CC2)cc1 [compound 351],3 (Class 3: The value of percent of control at 10^−7 M was more than 60% or the value of IC50 was more than 200 nM.)
12,"CN(C)c1nc(N[C@H]2CC[C@@H](NC(=S)Nc3ccc(Br)cc3C(F)(F)F)CC2)nc2ccccc12 [compound 268, N-[4-bromo-2-(trifluoromethyl)phenyl]-N′-(cis-4-{[4-(dimethylamino)quinazolin-2-yl]amino}cyclohexyl)thiourea]",1 (Class 1: The value of percent of control at 10^−7 M was less than 40% or the value of IC50 was less than 50 nM.)
13,CN(C)c1nc(N[C@H]2CC[C@@H](CNC(=S)Nc3cccc(C(F)(F)F)c3)CC2)nc2ccccc12 [compound 618],3 (Class 3: The value of percent of control at 10^−7 M was more than 60% or the value of IC50 was more than 200 nM.)
14,CN(C)c1nc(N[C@H]2CC[C@@H](CNC(=S)NCc3ccccc3)CC2)nc2ccccc12 [compound 580],3 (Class 3: The value of percent of control at 10^−7 M was more than 60% or the value of IC50 was more than 200 nM.)
15,CN(C)c1nc(N[C@H]2CC[C@@H](CNC(=O)Nc3ccc(Cc4ccccc4)cc3)CC2)nc2ccccc12 [compound 540],3 (Class 3: The value of percent of control at 10^−7 M was more than 60% or the value of IC50 was more than 200 nM.)
16,Cc1cc(Br)ccc1NC(=S)NC[C@H]1CC[C@@H](Nc2nc(N(C)C)c3ccccc3n2)CC1 [compound 692],3 (Class 3: The value of percent of control at 10^−7 M was more than 60% or the value of IC50 was more than 200 nM.)
17,CN(C)c1nc(N[C@H]2CC[C@@H](CNC(=S)Nc3cc(Cl)cc(Cl)c3)CC2)nc2ccccc12 [compound 647],3 (Class 3: The value of percent of control at 10^−7 M was more than 60% or the value of IC50 was more than 200 nM.)

# Same assay, conditions: class by percent of control at 10^-7 M or by IC50; read-out: class
row,pIC50,Structure (SMILES)
1,< 6.70,CN(C)c1nc(N[C@H]2CC[C@@H](NC(=O)Nc3ccc(F)c([N+](=O)[O-])c3)CC2)nc2ccccc12 [compound 35]
2,6.70 to 7.30,"COc1ccc(C)cc1NC(=O)N[C@H]1CC[C@@H](Nc2nc(N(C)C)c3ccccc3n2)CC1 [compound 105, N-(cis-4-{[4-(dimethylamino)quinazolin-2-yl]amino}cyclohexyl)-N′-(2-methoxy-5-methylphenyl)urea]"
3,6.70 to 7.30,COc1cc(NC(=O)N[C@H]2CC[C@@H](Nc3nc(N(C)C)c4ccccc4n3)CC2)cc(OC)c1 [compound 126]
4,< 6.70,CN(C)c1nc(N[C@H]2CC[C@@H](NC(=S)NCc3ccco3)CC2)nc2ccccc12 [compound 174]
5,> 7.30,"CN(C)c1nc(N[C@H]2CC[C@@H](NC(=S)Nc3ccc(Br)cc3)CC2)nc2ccccc12 [compound 158, N-(4-bromophenyl)-N′-(cis-4-{[4-(dimethylamino)quinazolin-2-yl]amino}cyclohexyl)thiourea]"
6,< 6.70,CN(C)c1nc(N[C@H]2CC[C@@H](NC(=S)Nc3ccccc3Br)CC2)nc2ccccc12 [compound 201]
7,6.70 to 7.30,"Cc1ccc(NC(=O)N[C@H]2CC[C@@H](Nc3nc(N(C)C)c4ccccc4n3)CC2)cc1 [compound 57, N-(cis-4-{[4-(dimethylamino)quinazolin-2-yl]amino}cyclohexyl)-N′-(4-methylphenyl)urea]"

# Same assay, conditions: class by percent of control at 10^−7 M or by IC50; read-out: class
row,pIC50,Structure (SMILES)
1,> 7.30,"CN(C)c1nc(N[C@H]2CC[C@@H](CNC(=O)Nc3cccc(Cl)c3Cl)CC2)nc2ccccc12 [Example 1028, N-(2,3-dichlorophenyl)-N′-[(cis-4-{[4-(dimethylamino)quinazolin-2-yl]amino}cyclohexyl)methyl]urea]"
2,> 7.30,"COc1cccc(NCC(=O)N[C@H]2CC[C@@H](Nc3nc(N(C)C)c4ccccc4n3)CC2)c1 [Example 1090, N-(cis-4-{[4-(dimethylamino)quinazolin-2-yl]amino}cyclohexyl)-N2-(3-methoxyphenyl)glycinamide]"
3,> 7.30,"COc1ccccc1Oc1ccc(C(=O)N[C@H]2CC[C@@H](Nc3nc(N(C)C)c4ccccc4n3)CC2)cn1 [Example 1054, N-(cis-4-{[4-(dimethylamino)quinazolin-2-yl]amino}cyclohexyl)-6-(2-methoxyphenoxy)nicotinamide]"
4,6.70 to 7.30,"CN(C)c1nc(N[C@H]2CC[C@@H](C(=O)NCc3cccc(I)c3)CC2)nc2cc(F)c(F)cc12 [Example 1006, cis-4-{[4-(dimethylamino)-6,7-difluoroquinazolin-2-yl]amino}-N-(3-iodobenzyl)cyclohexanecarboxamide]"
5,> 7.30,"CN(C)c1nc(N[C@H]2CC[C@@H](C(=O)NCc3cccc(-c4ccccc4)c3)CC2)nc2ccccc12 [Example 1148, cis-N-(biphenyl-3-ylmethyl)-4-{[4-(dimethylamino)quinazolin-2-yl]amino}cyclohexanecarboxamide]"
6,< 6.70,"CN(C)c1nc(N[C@H]2CC[C@@H](NCc3ccc(Br)cc3OC(F)(F)F)C2)nc2ccccc12 [Example 1048, N2-((1S,3R)-3-{[4-bromo-2-(trifluoromethoxy)benzyl]-amino}cyclopentyl)-N4,N4-dimethylquinazoline-2,4-diamine]"
7,> 7.30,"CN(C)c1nc(N[C@H]2CC[C@@H](C(=O)NCc3ccc(Cl)cc3Cl)CC2)nc2cc(F)c(F)cc12 [Example 1000, cis-N-(2,4-dichlorobenzyl)-4-{[4-(dimethylamino)-6,7-difluoroquinazolin-2-yl]amino}cyclohexanecarboxamide]"
8,6.70 to 7.30,"CN(C)c1nc(N[C@H]2CC[C@@H](CNC(=O)[C@@H](O)c3cccc(Cl)c3)CC2)nc2ccccc12 [Example 1100, (2S)-2-(3-chlorophenyl)-N-[(cis-4-{[4-(dimethylamino)-quinazolin-2-yl]amino}cyclohexyl)methyl]-2-hydroxyacetamide]"
9,> 7.30,"CN(C)c1nc(N[C@H]2CC[C@@H](C(=O)NCc3ccc(Cl)cc3F)CC2)nc2ccccc12 [Example 1164, cis-N-(4-chloro-2-fluorobenzyl)-4-{[4-(dimethylamino)quinazolin-2-yl]amino}cyclohexanecarboxamide]"
10,< 6.70,"CN(C)c1nc(N[C@H]2CC[C@@H](CNC(=O)C(O)c3c(F)cccc3F)CC2)nc2ccccc12 (relative stereo) [Example 1092, 2-(2,6-difluorophenyl)-N-[(cis-4-{[4-(dimethylamino)quinazolin-2-yl]amino}cyclohexyl)methyl]-2-hydroxyacetamide]"
11,> 7.30,"CN(C)c1nc(N[C@H]2CC[C@@H](NC(=O)c3ccc(F)cc3)CC2)nc2cc(F)c(F)cc12 [Example 1207, N-(cis-4-{[4-(dimethylamino)-6,7-difluoroquinazolin-2-yl]amino}cyclohexyl)-4-fluorobenzamide]"
12,6.70 to 7.30,"CN(C)c1nc(N[C@H]2CC[C@@H](NC(=O)COc3cc(Cl)c(Cl)cc3Cl)CC2)nc2ccccc12 [Example 1077, N-(cis-4-{[4-(dimethylamino)quinazolin-2-yl]amino}cyclohexyl)-2-(2,4,5-trichlorophenoxy)acetamide]"
